Laboratory results taken from publication PMC10281726 (Journal of Food and Drug Analysis, 2023).

Columns and labels:
Format in all cases: biochemical
[1] = target: dual-specific tyrosine phosphorylation-regulated kinase 1A (DYRK1A) (Homo sapiens, UniProt Q13627); test: Z'-LYTE FRET-peptide kinase assay, dose response
MINK1 = MINK1 (Homo sapiens, UniProt Q8N4C8); test: kinase panel; conditions: read-out: % inhibition at 3 μM
STK3 = target: T1, STK3 (Homo sapiens, UniProt Q13188); test: kinase panel; conditions: read-out: % inhibition at 3 μM
T1 sequence (Q13188 1-491): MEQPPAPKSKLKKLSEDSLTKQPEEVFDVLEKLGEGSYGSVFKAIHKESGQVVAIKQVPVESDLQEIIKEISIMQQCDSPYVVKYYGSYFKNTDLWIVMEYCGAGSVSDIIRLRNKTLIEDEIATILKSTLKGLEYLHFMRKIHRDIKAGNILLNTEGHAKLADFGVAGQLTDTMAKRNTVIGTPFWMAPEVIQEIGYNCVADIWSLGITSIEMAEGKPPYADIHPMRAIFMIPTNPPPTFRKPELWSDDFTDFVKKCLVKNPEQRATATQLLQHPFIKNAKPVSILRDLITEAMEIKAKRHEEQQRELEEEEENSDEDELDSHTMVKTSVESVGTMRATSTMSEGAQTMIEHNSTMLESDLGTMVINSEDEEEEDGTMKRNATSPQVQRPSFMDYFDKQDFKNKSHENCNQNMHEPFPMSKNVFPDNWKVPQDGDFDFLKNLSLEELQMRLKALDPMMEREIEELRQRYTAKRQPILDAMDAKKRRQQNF

VRK2 = VRK2 (Homo sapiens, UniProt Q86Y07); test: kinase panel; conditions: read-out: % inhibition at 3 μM
MKNK1 = MKNK1 (Homo sapiens, UniProt Q9BUB5); test: kinase panel; conditions: read-out: % inhibition at 3 μM
Sequence of MKNK1 (Q9BUB5 whole entry): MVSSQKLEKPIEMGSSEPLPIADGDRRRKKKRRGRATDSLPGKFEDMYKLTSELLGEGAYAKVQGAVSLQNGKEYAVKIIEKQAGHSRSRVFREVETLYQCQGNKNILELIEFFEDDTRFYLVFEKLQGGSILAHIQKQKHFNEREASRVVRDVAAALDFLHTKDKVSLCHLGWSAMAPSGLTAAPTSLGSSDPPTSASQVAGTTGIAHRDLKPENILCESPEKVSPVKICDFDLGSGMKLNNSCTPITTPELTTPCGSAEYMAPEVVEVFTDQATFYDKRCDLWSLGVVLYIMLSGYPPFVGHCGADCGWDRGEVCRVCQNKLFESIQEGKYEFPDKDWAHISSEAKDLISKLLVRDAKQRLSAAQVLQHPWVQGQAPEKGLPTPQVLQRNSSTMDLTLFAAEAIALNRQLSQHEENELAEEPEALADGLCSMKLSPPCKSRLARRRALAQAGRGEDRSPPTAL

Sequence of VRK2 (Q86Y07 whole entry): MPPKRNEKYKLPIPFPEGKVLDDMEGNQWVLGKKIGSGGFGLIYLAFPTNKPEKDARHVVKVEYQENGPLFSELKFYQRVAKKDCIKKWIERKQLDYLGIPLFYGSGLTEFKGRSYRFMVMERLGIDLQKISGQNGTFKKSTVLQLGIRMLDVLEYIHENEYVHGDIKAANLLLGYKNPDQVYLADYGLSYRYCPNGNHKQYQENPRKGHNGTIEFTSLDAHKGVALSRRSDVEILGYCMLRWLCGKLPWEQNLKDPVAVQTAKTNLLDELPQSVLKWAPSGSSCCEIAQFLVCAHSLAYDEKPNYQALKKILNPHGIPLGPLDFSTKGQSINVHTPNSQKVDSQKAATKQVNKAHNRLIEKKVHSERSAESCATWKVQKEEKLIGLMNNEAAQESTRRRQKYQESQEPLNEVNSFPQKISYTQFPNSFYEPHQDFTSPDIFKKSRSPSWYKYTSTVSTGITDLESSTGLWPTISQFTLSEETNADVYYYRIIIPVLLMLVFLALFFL
Sequence of MINK1 (Q8N4C8 whole entry): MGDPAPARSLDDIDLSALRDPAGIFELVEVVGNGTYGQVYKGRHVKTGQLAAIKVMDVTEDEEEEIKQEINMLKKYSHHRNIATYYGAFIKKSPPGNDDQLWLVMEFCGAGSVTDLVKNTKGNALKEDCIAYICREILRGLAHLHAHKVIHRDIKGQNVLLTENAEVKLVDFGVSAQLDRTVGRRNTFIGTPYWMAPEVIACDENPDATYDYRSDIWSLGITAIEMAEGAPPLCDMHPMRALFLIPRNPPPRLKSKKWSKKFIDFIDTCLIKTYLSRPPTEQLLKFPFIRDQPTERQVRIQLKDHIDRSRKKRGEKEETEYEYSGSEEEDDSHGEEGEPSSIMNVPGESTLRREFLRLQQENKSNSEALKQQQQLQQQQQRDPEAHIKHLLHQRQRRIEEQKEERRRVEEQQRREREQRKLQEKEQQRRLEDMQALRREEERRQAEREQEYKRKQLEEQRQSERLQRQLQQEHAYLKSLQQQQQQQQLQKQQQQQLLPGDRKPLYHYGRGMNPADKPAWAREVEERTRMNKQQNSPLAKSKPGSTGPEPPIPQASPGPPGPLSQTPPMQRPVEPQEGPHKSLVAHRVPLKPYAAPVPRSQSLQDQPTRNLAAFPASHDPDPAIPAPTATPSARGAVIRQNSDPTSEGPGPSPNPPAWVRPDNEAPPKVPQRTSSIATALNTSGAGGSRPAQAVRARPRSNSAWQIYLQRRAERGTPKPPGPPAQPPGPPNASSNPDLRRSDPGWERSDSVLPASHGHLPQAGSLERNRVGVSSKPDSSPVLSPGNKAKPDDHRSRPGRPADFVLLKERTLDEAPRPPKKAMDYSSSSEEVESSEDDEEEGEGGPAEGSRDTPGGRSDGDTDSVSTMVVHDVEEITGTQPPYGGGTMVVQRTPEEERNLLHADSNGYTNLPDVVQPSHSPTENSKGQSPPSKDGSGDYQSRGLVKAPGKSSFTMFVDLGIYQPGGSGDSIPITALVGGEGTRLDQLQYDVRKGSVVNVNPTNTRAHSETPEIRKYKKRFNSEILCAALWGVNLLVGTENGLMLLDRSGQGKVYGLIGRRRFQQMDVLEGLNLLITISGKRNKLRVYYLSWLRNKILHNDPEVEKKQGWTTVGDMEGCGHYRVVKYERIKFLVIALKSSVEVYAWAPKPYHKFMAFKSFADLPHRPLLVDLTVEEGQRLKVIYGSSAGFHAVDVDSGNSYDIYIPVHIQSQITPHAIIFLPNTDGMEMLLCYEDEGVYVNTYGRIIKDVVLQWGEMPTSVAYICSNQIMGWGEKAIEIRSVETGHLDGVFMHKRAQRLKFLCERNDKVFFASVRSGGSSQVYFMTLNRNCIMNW

IC50 [1]: 909 nM | inhibition at 3 µM (MINK1): > 50% | inhibition at 3 µM (STK3): > 50% | inhibition at 3 µM (VRK2): > 50% | inhibition at 3 µM (MKNK1): > 50%
SMILES: O=c1oc2cc(O)ccc2c2ccc(O)cc12 [UA, Urolithin A]
